From patent US12491229B2, “Stabilized peptide composition” (Shionogi & Co., Ltd., priority 2014, dated 2025)
Ends that are not written are not given here.

Experiments:
Assay type in all cases: physicochemical
[1] = Solubility study 1 of each peptide against solution pH; details: pH 2-12, peptide mixed at 3 mg/mL in water for injection adjusted with hydrochloride or sodium hydroxide solution; FIG. 1
Protocol: Solubility of the peptides described as SEQ ID NOs: 1-5 was evaluated with the condition of pH 2-12. Hydrochloride solution or sodium hydroxide solution was added to water for injection to adjust pH, and each peptide was mixed with the adjusted solution, where the peptide concentration was set to 3 mg/mL. The mixed solution was filtered, the filtered solution was diluted with 10-20 parts of water for injection, and peak area of each peptide was obtained by liquid chromatography (same test procedure described above). From peak area of each peptide, dilution ratio of the filtered solution, peak area and concentration of each standard solution described above, peptide concentration was obtained.

[2] = Solubility study 2 of each peptide against pH (white turbidity on decreasing pH); parameters: key: ∘: dissolution; x: white turbidity; details: peptide 1.5 mg/g, pH decreased gradually with hydrochloride solution
Protocol: As shown in the study 1 described above, when the peptide was mixed directly with water for injection, the bulk was formed, and it was difficult to dissolve the bulk. So, solubility of peptides was evaluated thermodynamically by dissolving the peptide completely once with high pH, and decreasing the solution pH gradually to check pH when white turbidity was observed.
The peptide described as SEQ ID NO: 1 or SEQ ID NO: 2 was dissolved into the solution with pH10 and solubility was examined by decreasing the solution pH in each. 15 mg of the peptide described as SEQ ID NO: 1 or SEQ ID NO: 2 was mixed with water, 0.1 mol/L sodium hydroxide solution was added for dissolution, and pH was adjusted to 10. Peptide concentration was adjusted to 1.5 mg/g. In each sample solution, hydrochloride solution was added to decrease pH gradually, and the appearance of the solution was checked.

[3] = Solution stability of each peptide against pH; details: for stability in the solution state: conclusion from studies on stability in solution with different pH
Protocol: Content and related substances were measured in accordance with the method of liquid chromatography described in general test section in Japan Pharmacopeia. To prepare the test sample, water for injection was added to the lyophilized sample, and each peptide concentration was adjusted to 0.12 mg/mL. Peak area of each peptide in the sample and the one in each standard of the drug substance were obtained, and content was calculated from dilution ratio and ratio of peak area in the sample to one in each standard described below. Residual of the content in the stability test was against the content at the time when the lyophilized sample was prepared. Related substances were calculated by ratio of peak area of the target related substance to all related substances and drug substances in each sample solution. The level of increase of the related substances was evaluated by the difference from the related substance at the moment when the lyophilized sample was prepared.
Standard solution for measuring content of the peptide described as SEQ ID NO: 1 or SEQ ID NO: 2 was prepared in each by dissolving the peptide described above into 1.6 mg/mL phosphate solution and by adjusting each peptide concentration into 0.15 mg/mL. Standard solution for measuring content of the peptide described as SEQ ID NO: 3, SEQ ID NO: 4 or SEQ ID NO: 5 was prepared in each by dissolving the peptide described above into 12.1 mg/mL of 2-amnino-2-hydroxymethyl-1,3-propanediol aqueous solution and by adjusting each peptide concentration to 0.15 mg/mL. For the stationary phase of the liquid chromatography, column with octadecyl group was used, and the measurement was performed by gradient elution method. Flow rate in the measurement was set to 1.0 mL/min.
Stability of the peptide described as SEQ ID NOs: 1-5 was evaluated in each.
The sample solution prepared with the compositions above was stored for 6 hours at 25° C. Then, the level of increase of related substances derived from the peptides described as SEQ ID NO: 1, SEQ ID NO: 2 or SEQ ID NO: 3 was measured in each, and residual of the peptides described as SEQ ID NO: 4 or SEQ ID NO: 5 was measured in each. The analytical procedure for the related substances and peptide contents was described above.

For EYYELFVNI [SEQ ID NO: 1, EYYELFVNI], the “Solubility of each peptide against pH” value [1] was “decreased with decreasing pH of the solution”, the Solution state ([2]; pH 5.4) was “x” and the Solution state ([2]; pH 5.6) was “∘”. The Solution state ([2]; pH 6) was “∘”, the Solution state ([2]; pH 6.6) was “∘” and the Solution state ([2]; pH 7.9) was “∘”. For the same sequence, the Solution state ([2]; pH 10) was “∘” and the “stability in the solution state” value [3] was “good stability”.

In the case of IYNEYIYDL [SEQ ID NO: 2, IYNEYIYDL], the “Solubility of each peptide against pH” value [1] is reported as “decreased with decreasing pH of the solution”, the Solution state ([2]; pH 5) is reported as “x” and the Solution state ([2]; pH 5.5) is reported as “∘”. For the same sequence, the Solution state ([2]; pH 7) was “∘”, the Solution state ([2]; pH 8) was “∘” and the Solution state ([2]; pH 9) was “∘”. For the same sequence, the Solution state ([2]; pH 10) was “∘” and the “stability in the solution state” value [3] was “poor stability”.

For “KTVNELQNL (listed as Homo sapiens) [SEQ ID NO: 5, peptide derived from KOC1 protein]”, the “stability in the solution state” value [3] was “poor stability” and the “residual of the peptide” value ([3]; five-peptide solution (Table 2) pH 8-11 stored for 6 hours at 25° C., FIGS. 2-4, 2-5) was “prominently decreased and solution stability decreased with increasing solution pH”.

With “RYCNLEGPPI (listed as Homo sapiens) [SEQ ID NO: 3, peptide derived from URLC10 protein]” the “stability in the solution state” value [3] was “poor stability” and the “level of increase of related substances derived from the peptide” value ([3]; five-peptide solution (Table 2) pH 8-11 stored for 6 hours at 25° C., FIGS. 2-1 to 2-3) was “increased and solution stability decreased, when solution pH was 10.0-11.0”.

In the case of VYGIRLEHF [SEQ ID NO: 4, VYGIRLEHF], the “Solubility of each peptide against pH” value [1] is reported as “low when solution pH was around neutral” and the “stability in the solution state” value [3] is reported as “good stability”.
